Consider 1 molecule from patent US12258360B2, “Compositions and methods for treatment of anticancer-drug resistant cancers” (THE GEORGE WASHINGTON UNIVERSITY, priority 2020, dated 2025).

One series relates to IGROV1 xenograft. The series is classed as in vivo, mice. On the procedure: To evaluate the potency of And-1 inhibitors in vivo, IGROV1 or MCF7 cells were subcutaneously implanted into nude mice to form ovarian or breast tumors, respectively. In brief, 5-6 week-old female BALB/c athymic nude mice (CByJ.Cg-Foxn1nu/J, weighting 20-25 grams) were inoculated subcutaneously by injecting the OC cells, cisplatin resistant OC cells or breast cancer cells suspended in 100 μl ice-cold Matrigel/PBS (1:1, V:V; 5×10^6/mouse) into the dorsal flank of each mouse. When the average tumor volume reached 100-150 mm^3, the mice were randomized into subsequent experiment groups. For tumors treated with CH3 only, CH3 was given at 0 mg/kg, 20 mg/kg and 40 mg/kg via intraperitoneal injection twice a week for three weeks. […] The relative tumor volumes were calculated using the formula: a×(b^2)/2, for which a and b represented the longest and shortest diameters, respectively. During the drug treatment, the tumor volume and body weight were measured. Tumor samples were collected 4 days after final administration of the drug.

Another series addresses T1, And-1 (Homo sapiens, UniProt O75717).
T1 sequence (O75717 1-1129): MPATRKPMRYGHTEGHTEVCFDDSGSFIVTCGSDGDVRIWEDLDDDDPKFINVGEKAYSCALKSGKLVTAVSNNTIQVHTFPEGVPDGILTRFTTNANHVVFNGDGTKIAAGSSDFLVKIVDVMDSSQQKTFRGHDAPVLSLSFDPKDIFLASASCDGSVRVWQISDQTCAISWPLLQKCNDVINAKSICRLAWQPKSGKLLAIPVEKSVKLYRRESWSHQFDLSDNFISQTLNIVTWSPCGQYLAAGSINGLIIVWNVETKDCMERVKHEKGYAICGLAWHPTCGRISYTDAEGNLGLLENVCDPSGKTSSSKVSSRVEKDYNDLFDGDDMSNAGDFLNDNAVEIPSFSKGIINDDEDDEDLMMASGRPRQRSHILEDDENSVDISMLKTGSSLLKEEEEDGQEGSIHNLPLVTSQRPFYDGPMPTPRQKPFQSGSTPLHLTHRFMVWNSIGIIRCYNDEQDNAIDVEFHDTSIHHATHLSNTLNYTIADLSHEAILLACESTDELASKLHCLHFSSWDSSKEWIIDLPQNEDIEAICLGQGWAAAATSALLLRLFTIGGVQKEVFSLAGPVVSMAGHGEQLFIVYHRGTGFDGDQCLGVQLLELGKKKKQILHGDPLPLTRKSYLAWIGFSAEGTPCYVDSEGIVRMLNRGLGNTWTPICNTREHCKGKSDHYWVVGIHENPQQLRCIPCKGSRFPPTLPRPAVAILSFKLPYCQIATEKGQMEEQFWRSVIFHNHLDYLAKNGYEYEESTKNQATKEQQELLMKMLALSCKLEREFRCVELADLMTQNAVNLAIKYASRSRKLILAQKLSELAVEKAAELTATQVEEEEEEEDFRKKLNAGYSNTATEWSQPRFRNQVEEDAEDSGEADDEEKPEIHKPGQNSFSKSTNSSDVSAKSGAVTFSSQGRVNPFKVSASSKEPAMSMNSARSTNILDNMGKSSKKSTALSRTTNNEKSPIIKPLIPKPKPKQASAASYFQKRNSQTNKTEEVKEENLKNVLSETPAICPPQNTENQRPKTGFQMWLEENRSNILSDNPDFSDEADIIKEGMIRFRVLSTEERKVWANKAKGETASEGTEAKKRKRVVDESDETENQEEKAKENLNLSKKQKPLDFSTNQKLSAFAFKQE
Briefly: immunoblot analysis of And-1 expression in IGROV1 cells. Further details: endogenous in cells; host or cells: IGROV1 CR. The series is classed as cell-based. On the procedure:
The high IC50 of resveratrol compromises its potential clinical application; therefore, resveratrol was used as a lead compound to screen 12 analogs of resveratrol for potent compounds that can inhibit And-1 (FIG. 14). […] To perform immunoblot analyses, cells were first treated with increasing concentrations of the 12 analogs. After treatment, the cells were harvested and then lysed with RIPA buffer protease inhibitor and phosphatase inhibitor cocktail. Protein concentration was determined by the BCA protein assay. Equal amounts of whole cell lysates were separated on sodium dodecyl sulfate polyacrylamide gel electrophoresis (SDS-PAGE) and transferred onto nitrocellulose membranes. Membranes were then incubated in blocking solution (5% non-fat milk in 20 mM TRIS-HCl, 150 mM NaCl, 0.1% Tween-20) (TBST), followed by incubation with the indicated antibodies at 4° C. overnight. The membranes were then washed in TBST and incubated with HRP-conjugated secondary antibodies for 1 hour at room temperature (21° C.±2° C.). Antibody detection was performed with an enhanced chemiluminescence reaction.
For orientation: Immunoblotting shows a protein as a band on a membrane.

What is called IC50 is the concentration that inhibits the measured activity by half.

Molecules are shown by their SMILES.

As to `OB1OCc2cc(/C=C/c3ccc(Cl)c(Cl)c3)ccc21` [CH3], in the series on IGROV1 xenograft (IGROV1 xenograft), the “And-1 expression in tumor (IHC)” value is listed as “inhibited And-1 expression” and the “apoptosis in tumor (cleaved caspase-3 IHC)” value was “induced apoptosis in tumor”. Also, the tumor growth result with IGROV1 xenograft (IGROV1 xenograft, 20 or 40 mg/kg intraperitoneally, three weeks) is given as “significantly reduced tumor growth”. Also, the “systemic toxicity (body weight, H&E staining of heart, liver, kidney and lung)” value in the series with IGROV1 xenograft (mouse, in vivo) is recorded as “systemic toxicity or obvious side effects were not observed”. At And-1 (5 μM for 48 hours, without MG132), the And-1 protein levels result is recorded as “reduced And-1 protein levels”. On And-1 (immunoblot, read-out: IC50 for inhibition of And-1 expression), the IC50 amounted to 2080 nM.
